Assay: xn = mol fraction of the nth substance listed
Details: 100 kPa, x2 = 0

CCO + C[C@H](N)C(=O)[O-].C[N+](C)(C)CCO
Details	viscosity [mPa·s]
288.13 K	1.15
289.34 K	1.12
290.55 K	1.1
291.74 K	1.06
292.92 K	1.03
294.1 K	1.01
295.28 K	0.98
296.45 K	0.96
297.63 K	0.93
298.8 K	0.9
299.98 K	0.88
301.16 K	0.85
302.33 K	0.82
303.51 K	0.8
304.68 K	0.77
305.86 K	0.73
307.04 K	0.71
308.21 K	0.68

CCO + C[N+](C)(C)CCC[N+]1(C)CCCCC1.N#C[N-]C#N.N#C[N-]C#N
Details	viscosity [mPa·s]
293.15 K	1.19
303.15 K	0.991
313.15 K	0.828
323.15 K	0.705
333.15 K	0.593

CCO + C[N+](C)(C)CCC[n+]1ccccc1.N#C[N-]C#N.N#C[N-]C#N
Details	viscosity [mPa·s]
293.15 K	1.19
303.15 K	0.991
313.15 K	0.828
323.15 K	0.705
333.15 K	0.593
